System: HIV-1 (PRRT-RH segment of patient sample 62)
Assay: phenotypic drug resistance test, PRRT-RH amplicon of sample 62
Type: cell-based
Text: Patient-derived segment(s) corresponding to the entire pol gene, encoding HIV protease, reverse transcriptase (including RNAse H), and integrase (hereinafter “POL”), the portion of pol encoding amino acids 1-305 of reverse transcriptase (hereinafter “PR-RT”), the portion of pol encoding amino acids 319-440 of reverse transcriptase (including RNAse H), and integrase (hereinafter “RHIN”), were amplified by the reverse transcription-polymerase chain reaction method (RT-PCR) using viral RNA isolated from viral particles present in the plasma or serum of HIV-infected individuals as described below. The portion of pol encoding protease, amino acids 1-531 of reverse transcriptase (including RNase H) (hereinafter “PRRT-RH”), or the portion of pol encoding protease, reverse transcriptase (including RNAse H) and integrase (hereinafter “PRRT-RHIN”), were assembled from amplicons described above by standard recombinant DNA techniques involving a KpnI restriction site at amino acid 400 or a Pin A1 site at amino acid 315.
Drug resistance tests performed with test vectors were carried out using packaging host and target host cells consisting of the human embryonic kidney cell line 293.
Resistance tests were carried out with the RTV libraries by using viral particles comprising the RTV libraries to infect a host cell in which the expression of the indicator gene is measured. The amount of indicator gene (luciferase) activity detected in infected cells is used as a direct measure of “infectivity,” i.e., the ability of the virus to complete a single round of replication. Thus, drug resistance or sensitivity can be determined by plotting the amount of luciferase activity produced by patient derived viruses in the presence of varying concentrations of the antiviral drug. By identifying the concentration of drug at which luciferase activity is half-maximum, the IC50 of the virus from which patient-derived segment(s) were obtained for the antiretroviral agent can be determined. […]

Point of comparison: `CC(C)Nc1cccnc1N1CCN(C(=O)c2cc3cc(NS(C)(=O)=O)ccc3[nH]2)CC1` [DLV, delavirdine], “Fold Change in IC50, PRRT-RH amplicon” value 250.00 fold. Against it:
- O=C1Nc2ccc(Cl)cc2[C@@](C#CC2CC2)(C(F)(F)F)O1 [EFV, efavirenz] — higher, 276.90 fold
- Cc1ccnc2c1NC(=O)c1cccnc1N2C1CC1 [NVP, nevirapine] — higher, 400.00 fold

Reference: patent US8637252B2, “Methods and compositions for determining altered susceptibility of HIV-1 to anti-HIV drugs” (Monogram Biosciences, Inc., priority 2011, dated 2014)
